Patent US9476099B2 (TRUSTEES OF DARTMOUTH COLLEGE, priority 2012, dated 2016)

Tested on: NT2/D1-R1 control and DNMT3B knockdown cells
Test: Genome-wide expression analysis with PAM clusters, control and DNMT3B knockdown cells (Tables 8-14)
Details: 10 nM, 3 days; NT2/D1-R1

SMILES: Nc1ncn([C@H]2C[C@H](O)[C@@H](CO)O2)c(=O)n1 [decitabine, 5-aza-deoxycytidine]
- Cluster 1: genes down-regulated by low dose decitabine in control cells but not in DNMT3B knockdown cells: 129 genes
- Cluster 2: genes induced by decitabine only in control cells and not in sh-DNMT3B cells: 337 genes
